Consider 1 compound from US11964941B2, “5-Bromo-indirubins” (City of Hope, priority 2014, dated 2024).

The target of one test is KDR/vEGFR2 (Homo sapiens, UniProt P35968). Kind of test: Kinase profiling in vitro, KDR/vEGFR2. It counts as biochemical. The settings on record: recombinant KDR/vEGFR2, 33P-ATP, 120 min. How it is done: (§1) The kinase assays were performed with recombinant proteins. Briefly, proteins, freshly prepared substrates and ^33P-ATP (specific activity 0.01 μCi/μl final) were mixed in reaction buffer (20 mM HEPES pH 7.5, 10 mM MgCl2, 1 mM EGTA, 0.02% Brij35, 0.02 mg/ml BSA, 0.1 mM Na3VO4, 2 mM DTT) in the presence of DMSO as control or 5IN-1NH1s. The mixtures were reacted for 120 min at room temperature. Samples were transferred onto P81 ion exchange paper and filters were extensively washed with 0.75% phosphoric acid. The radioactivities were monitored. IC50 values were determined using GraphPad Prism software.
Chain of KDR/vEGFR2 (P35968 20-1356): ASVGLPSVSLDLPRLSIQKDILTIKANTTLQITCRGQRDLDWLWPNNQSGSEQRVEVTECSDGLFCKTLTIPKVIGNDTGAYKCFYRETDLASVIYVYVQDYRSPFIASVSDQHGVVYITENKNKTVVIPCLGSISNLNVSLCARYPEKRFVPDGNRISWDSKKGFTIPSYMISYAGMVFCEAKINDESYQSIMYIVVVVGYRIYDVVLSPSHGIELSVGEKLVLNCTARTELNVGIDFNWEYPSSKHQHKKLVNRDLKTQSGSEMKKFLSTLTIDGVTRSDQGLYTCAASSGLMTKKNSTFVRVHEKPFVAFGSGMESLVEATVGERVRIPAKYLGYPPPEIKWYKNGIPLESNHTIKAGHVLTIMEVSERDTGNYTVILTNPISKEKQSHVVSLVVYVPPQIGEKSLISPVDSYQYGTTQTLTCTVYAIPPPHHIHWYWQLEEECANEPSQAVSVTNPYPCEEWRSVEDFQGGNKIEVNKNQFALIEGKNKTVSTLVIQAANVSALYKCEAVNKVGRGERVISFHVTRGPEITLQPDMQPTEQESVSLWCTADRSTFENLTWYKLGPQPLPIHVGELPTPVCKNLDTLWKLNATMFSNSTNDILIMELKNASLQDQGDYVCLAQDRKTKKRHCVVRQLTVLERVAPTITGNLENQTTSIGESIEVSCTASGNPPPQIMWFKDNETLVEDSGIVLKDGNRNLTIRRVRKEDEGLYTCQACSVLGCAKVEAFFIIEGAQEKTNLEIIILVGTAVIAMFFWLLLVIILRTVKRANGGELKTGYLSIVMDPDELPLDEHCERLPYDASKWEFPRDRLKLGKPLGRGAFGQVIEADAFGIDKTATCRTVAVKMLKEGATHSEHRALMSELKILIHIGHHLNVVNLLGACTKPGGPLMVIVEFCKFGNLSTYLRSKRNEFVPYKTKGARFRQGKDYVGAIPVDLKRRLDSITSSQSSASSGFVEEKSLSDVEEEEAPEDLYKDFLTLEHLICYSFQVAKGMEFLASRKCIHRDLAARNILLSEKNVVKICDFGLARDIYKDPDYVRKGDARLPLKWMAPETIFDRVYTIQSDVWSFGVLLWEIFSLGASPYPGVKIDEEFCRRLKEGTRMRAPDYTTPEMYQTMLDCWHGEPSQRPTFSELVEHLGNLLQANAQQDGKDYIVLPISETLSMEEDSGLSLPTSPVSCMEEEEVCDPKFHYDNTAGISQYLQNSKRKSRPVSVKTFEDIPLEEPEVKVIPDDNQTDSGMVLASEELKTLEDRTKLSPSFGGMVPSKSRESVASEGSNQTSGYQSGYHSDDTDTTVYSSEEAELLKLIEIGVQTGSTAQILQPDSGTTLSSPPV

The subject of the next test is A2058 melanoma cells. Kind of test: MTS cell viability, A2058 melanoma cells. It counts as cell-based, human. The conditions noted are these: 48 h, read-out: IC50 for 50% inhibition of viability. How it is done: (§2) MTS assays were performed for cell viability. Human cancer cells were seeded in 96-well plates (2500 cells/well for solid tumors, 5000 cells/well for blood tumors), incubated overnight at 37 C in 5% CO2, and exposed to 5IN-1NH1 or 5IN-1NH1s in a dose-dependent manner for 48 h. See FIGS. 1A-1B, 2A-2B, 3, 4A-4B, and 6A-6B. Dimethyl sulfoxide (DMSO) was used as the vehicle control. Viable cell numbers were determined by tetrazolium conversion to its formazan dye and absorbance was measured at 490 nm using an automated ELISA plate reader. Each experiment was performed in quadruplicate. IC50 values were determined using CalcuSyn software (BIOSOFT®, Cambridge GB).

Test [1] deals with FLT3 (Homo sapiens, UniProt P36888). Kind of test: In vitro kinase assay, recombinant FLT3. It counts as biochemical. The conditions noted are these: recombinant FLT3, 33P-ATP, 120 min. How it is done:
as §1, with “recombinant class III receptor tyrosine kinase family” for “recombinant”
as §1, with “Kinase” for “The kinase”, “FLT3, mutated FLT3-ITD and D835I mutant FLT3 kinases.” for “proteins.”, “compound (1289).” for “5IN-1NH1s.”

In test [2] the test system is FLT3. Kind of test: In vitro kinase assay, recombinant FLT3. The settings on record: recombinant class III receptor tyrosine kinase family proteins. It counts as biochemical. How it is done:
as §1, with “recombinant class III receptor tyrosine kinase family” for “recombinant”
as §1, with “Kinase” for “The kinase”, “FLT3, mutated FLT3-ITD and D835I mutant FLT3 kinases.” for “proteins.”, “compound (1289).” for “5IN-1NH1s.”

The next test deals with KCL22 CML cells. The test can be described thus: MTS cell viability, KCL22 CML cells. The settings on record: 48 h, read-out: IC50 for 50% inhibition of viability. It counts as cell-based, human. How it is done: as §2
Another test has as its target Aurora A (Homo sapiens, UniProt O14965). The test can be described thus: Kinase profiling in vitro, Aurora A. It counts as biochemical. The conditions noted are these: recombinant Aurora A, 33P-ATP, 120 min. How it is done: as §1
Test [3] concerns MDA-MB-231 breast cancer cells. The test can be described thus: MTS cell viability, MDA-MB-231 breast cancer cells. It counts as cell-based, human. The settings on record: 48 h, read-out: IC50 for 50% inhibition of viability. How it is done:
as §2

The target in a further test is ABL1 (T315I) (Homo sapiens, UniProt P00519, T315I). Kind of test: Kinase profiling in vitro, ABL1 (T315I). The settings on record: recombinant ABL1 (T315I), 33P-ATP, 120 min. It counts as biochemical. How it is done:
as §1

In the next test the target is FMS (Homo sapiens, UniProt P07333). Kind of test: In vitro kinase assay, recombinant FMS. It counts as biochemical. The settings on record: 33P-ATP, 120 min. How it is done: (§3) Compound (1289) inhibits activities of FMS, PDGFR α, PDGFR β and c-KIT in vitro. The kinase assays were performed with recombinant FMS, PDGFR α, PDGFR β and c-KIT proteins. Briefly, proteins, freshly prepared substrates and ^33P-ATP (specific activity 0.01 μCi/μl final) were mixed in reaction buffer (20 mM HEPES pH 7.5, 10 mM MgCl2, 1 mM EGTA, 0.02% Brij35, 0.02 mg/ml BSA, 0.1 mM Na3VO4, 2 mM DTT) in the presence of DMSO as control or compound (1289). The mixtures were reacted for 120 min at room temperature. Samples were transferred onto P81 ion exchange paper and filters were extensively washed with 0.75% phosphoric acid. The radioactivities were monitored.
Chain of FMS (P07333 20-972, species assumed): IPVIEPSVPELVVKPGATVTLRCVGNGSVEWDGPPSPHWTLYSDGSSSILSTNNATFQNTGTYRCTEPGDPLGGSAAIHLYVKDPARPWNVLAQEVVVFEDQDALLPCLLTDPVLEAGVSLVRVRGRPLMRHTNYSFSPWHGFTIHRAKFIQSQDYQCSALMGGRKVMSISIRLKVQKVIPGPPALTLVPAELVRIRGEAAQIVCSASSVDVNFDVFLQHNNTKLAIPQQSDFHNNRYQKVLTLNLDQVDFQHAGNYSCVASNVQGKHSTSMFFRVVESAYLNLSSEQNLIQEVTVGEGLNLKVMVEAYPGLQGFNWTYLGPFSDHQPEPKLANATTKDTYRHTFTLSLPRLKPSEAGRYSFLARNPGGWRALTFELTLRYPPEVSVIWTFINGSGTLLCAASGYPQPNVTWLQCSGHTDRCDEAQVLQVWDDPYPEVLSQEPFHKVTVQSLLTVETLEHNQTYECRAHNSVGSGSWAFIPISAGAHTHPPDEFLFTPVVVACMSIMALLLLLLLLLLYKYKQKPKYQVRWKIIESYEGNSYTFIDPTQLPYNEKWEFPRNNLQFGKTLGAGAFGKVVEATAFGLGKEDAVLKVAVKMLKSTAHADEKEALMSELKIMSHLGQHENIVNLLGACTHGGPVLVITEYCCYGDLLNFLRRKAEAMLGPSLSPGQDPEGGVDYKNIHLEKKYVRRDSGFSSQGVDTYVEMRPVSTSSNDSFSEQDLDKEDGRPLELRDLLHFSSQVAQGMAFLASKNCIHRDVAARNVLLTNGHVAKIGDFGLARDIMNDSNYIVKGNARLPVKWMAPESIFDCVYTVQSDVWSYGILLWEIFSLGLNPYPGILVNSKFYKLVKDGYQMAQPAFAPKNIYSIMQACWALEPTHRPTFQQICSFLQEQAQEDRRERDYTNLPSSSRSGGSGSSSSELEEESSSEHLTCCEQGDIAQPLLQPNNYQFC
as §1, with “recombinant class III receptor tyrosine kinase family” for “recombinant”

In a further test the target is ABL1 (Homo sapiens, UniProt P00519). Kind of test: Kinase profiling in vitro, ABL1. It counts as biochemical. The settings on record: recombinant ABL1, 33P-ATP, 120 min. How it is done:
as §1

For another test, the target named is AKT1 (Homo sapiens, UniProt P31749). The test can be described thus: Kinase profiling in vitro, AKT1. It counts as biochemical. The settings on record: recombinant AKT1, 33P-ATP, 120 min. How it is done: as §1
Chain of AKT1 (P31749 whole entry, species assumed): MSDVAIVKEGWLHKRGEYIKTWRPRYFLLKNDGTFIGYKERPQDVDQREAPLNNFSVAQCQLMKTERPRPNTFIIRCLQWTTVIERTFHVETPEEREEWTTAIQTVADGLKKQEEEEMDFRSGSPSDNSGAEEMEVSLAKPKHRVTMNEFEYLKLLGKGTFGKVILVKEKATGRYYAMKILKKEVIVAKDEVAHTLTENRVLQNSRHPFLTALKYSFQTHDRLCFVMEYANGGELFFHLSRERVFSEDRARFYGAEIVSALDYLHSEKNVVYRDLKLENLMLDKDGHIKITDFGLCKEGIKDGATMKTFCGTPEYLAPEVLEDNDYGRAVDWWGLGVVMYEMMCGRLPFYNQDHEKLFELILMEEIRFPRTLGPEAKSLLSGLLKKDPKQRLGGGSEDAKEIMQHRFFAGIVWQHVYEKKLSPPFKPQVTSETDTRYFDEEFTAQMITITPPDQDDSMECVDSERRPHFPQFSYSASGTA
The next test deals with BRAF (Homo sapiens, UniProt P15056). Kind of test: Kinase profiling in vitro, BRAF. The settings on record: recombinant BRAF, 33P-ATP, 120 min. It counts as biochemical. How it is done:
as §1

A further test concerns MV4-11 AML cells. The test can be described thus: MTS cell viability, MV4-11 AML cells (FLT3-ITD). It counts as cell-based, human. The settings on record: 48 h, read-out: IC50 for 50% inhibition of viability. How it is done:
as §2
(§4) Compound (1289) inhibits viabilities of MV4-11 and MOLM13 AML cells that harbor an internal tandem duplication (ITD) mutation. MTS assays were performed for cell viability. Human MV4-11 and MOLM13 AML cells (5000/well) were seeded in 96-well plates, incubated overnight at 37° C. in 5% CO2, and exposed to compound (1289) in a dose-dependent manner for 48 h. Dimethyl sulfoxide (DMSO) was used as the vehicle control. Viable cell numbers were determined by tetrazolium conversion to its formazan dye and absorbance was measured at 490 nm using an automated ELISA plate reader. Each experiment was performed in quadruplicate. IC50 values were determined using CalcuSyn software.

The subject of a further test is MOLM13 AML cells. Kind of test: MTS cell viability, MOLM13 AML cells (FLT3-ITD). The conditions noted are these: 48 h, read-out: IC50 for 50% inhibition of viability. It counts as cell-based, human. How it is done: as §2, §4
A further test concerns the target PDGFR α (Homo sapiens, UniProt P16234). The test can be described thus: In vitro kinase assay, recombinant PDGFR α. It counts as biochemical. The settings on record: 33P-ATP, 120 min. How it is done: as §3
as §1, with “recombinant class III receptor tyrosine kinase family” for “recombinant”

Another test concerns the target FLT3 (D835Y) (Homo sapiens, UniProt P36888, D835Y). The test can be described thus: In vitro kinase assay, recombinant FLT3 (D835Y). The conditions noted are these: 33P-ATP, 120 min. It counts as biochemical. How it is done:
as §1, with “recombinant class III receptor tyrosine kinase family” for “recombinant”
as §1, with “Kinase” for “The kinase”, “FLT3, mutated FLT3-ITD and D835I mutant FLT3 kinases.” for “proteins.”, “compound (1289).” for “5IN-1NH1s.”

Chain of PDGFR α (P16234 24-1089, species assumed): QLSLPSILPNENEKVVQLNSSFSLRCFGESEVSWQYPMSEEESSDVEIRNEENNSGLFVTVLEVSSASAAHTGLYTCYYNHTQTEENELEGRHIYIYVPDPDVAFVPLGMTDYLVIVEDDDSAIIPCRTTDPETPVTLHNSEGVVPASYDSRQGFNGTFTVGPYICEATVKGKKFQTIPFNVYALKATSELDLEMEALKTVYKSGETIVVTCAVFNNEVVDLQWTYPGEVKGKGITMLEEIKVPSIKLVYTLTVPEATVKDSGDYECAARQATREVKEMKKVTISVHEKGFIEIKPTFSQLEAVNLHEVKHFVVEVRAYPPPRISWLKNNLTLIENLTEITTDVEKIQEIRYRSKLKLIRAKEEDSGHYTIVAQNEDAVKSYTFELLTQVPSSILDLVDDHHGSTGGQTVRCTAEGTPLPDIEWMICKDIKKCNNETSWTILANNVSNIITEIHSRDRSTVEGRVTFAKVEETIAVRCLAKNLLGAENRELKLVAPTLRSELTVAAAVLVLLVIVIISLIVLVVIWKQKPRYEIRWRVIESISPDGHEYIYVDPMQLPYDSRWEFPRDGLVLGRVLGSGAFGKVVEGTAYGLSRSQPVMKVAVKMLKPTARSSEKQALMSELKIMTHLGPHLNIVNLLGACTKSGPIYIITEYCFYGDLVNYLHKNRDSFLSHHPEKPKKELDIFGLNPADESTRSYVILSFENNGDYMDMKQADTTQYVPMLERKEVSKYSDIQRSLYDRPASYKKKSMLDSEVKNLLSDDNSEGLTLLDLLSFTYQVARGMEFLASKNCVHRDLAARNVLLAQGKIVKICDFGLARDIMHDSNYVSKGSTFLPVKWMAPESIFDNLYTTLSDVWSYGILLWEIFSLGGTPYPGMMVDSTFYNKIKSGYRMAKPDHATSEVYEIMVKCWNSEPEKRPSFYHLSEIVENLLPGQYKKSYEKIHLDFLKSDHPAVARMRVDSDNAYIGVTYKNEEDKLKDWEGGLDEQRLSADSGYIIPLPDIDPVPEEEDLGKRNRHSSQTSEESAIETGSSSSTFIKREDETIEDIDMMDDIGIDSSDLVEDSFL
Chain of BRAF (P15056 whole entry, species assumed): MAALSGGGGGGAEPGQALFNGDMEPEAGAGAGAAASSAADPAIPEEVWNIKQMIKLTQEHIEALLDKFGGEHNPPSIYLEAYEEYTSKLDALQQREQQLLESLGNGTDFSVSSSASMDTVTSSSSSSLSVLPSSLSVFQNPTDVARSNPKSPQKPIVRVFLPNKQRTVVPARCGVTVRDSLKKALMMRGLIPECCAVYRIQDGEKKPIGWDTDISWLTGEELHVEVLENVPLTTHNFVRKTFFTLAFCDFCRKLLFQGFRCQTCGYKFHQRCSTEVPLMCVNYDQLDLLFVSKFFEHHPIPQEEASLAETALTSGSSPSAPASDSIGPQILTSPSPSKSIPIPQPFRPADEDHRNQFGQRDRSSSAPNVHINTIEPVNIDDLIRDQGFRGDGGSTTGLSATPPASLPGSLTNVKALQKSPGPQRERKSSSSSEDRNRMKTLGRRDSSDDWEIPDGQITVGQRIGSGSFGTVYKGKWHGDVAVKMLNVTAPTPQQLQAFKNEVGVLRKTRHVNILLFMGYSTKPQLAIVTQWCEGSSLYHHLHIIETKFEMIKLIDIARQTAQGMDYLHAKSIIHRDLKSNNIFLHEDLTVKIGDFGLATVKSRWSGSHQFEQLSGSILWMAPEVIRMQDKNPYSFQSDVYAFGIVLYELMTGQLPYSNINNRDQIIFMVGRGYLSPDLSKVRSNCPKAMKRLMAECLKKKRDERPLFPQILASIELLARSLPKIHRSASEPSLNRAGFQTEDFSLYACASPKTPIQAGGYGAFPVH
Chain of Aurora A (O14965 whole entry): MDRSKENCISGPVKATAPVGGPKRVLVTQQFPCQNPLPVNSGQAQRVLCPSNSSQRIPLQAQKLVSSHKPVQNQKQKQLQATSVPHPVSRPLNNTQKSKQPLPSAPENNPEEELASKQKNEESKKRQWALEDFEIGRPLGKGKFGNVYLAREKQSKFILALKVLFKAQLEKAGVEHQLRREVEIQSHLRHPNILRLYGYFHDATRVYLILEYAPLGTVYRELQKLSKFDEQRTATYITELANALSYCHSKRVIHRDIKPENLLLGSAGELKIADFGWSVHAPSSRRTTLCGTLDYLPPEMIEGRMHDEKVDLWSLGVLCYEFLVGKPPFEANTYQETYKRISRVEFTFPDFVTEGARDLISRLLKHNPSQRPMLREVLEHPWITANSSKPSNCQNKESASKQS

As a reminder, the IC50 is the point on the concentration scale where inhibition reaches its midpoint. `CNCCO/N=C1/C(=C2/C(=O)Nc3ccc(Br)cc32)Nc2ccccc21` [5IN-1NH1s]: the IC50 on KDR/vEGFR2 came out at 245 nM; in the test on A2058 melanoma cells, 88.9 nM; at FLT3 [1] it was 1.39 nM; with KCL22 CML cells, 72.8 nM; on Aurora A, 217 nM; in test [3] it was 33 nM. For the same compound, the IC50 at ABL1 (T315I) amounted to 3400 nM; on FMS, 16 nM; at ABL1, 434 nM; on AKT1, 327 nM; at BRAF, 7410 nM; in the test with MV4-11 AML cells it was 3.7 nM. The half-inhibitory concentration (IC50) in the test with MOLM13 AML cells is 7.5 nM; at PDGFR α, 72.2 nM; on FLT3 (D835Y) it was below 0.5 nM. In addition, in the test on FLT3 [2], the “selectivity for FLT3 and mutated FLT3 kinases within class III receptor tyrosine kinase family” value was “selectively inhibits”.
